# Experimental data as given in patent US12721832B2, “Anti-senescence plant polyphenol drug downregulating senescence-related secretory phenotype and use thereof” (BYHEALTH CO., LTD., priority 2021, dated 2026).
# What was measured:
# [1] = tested on: aged C57BL/6 mice; test: Physical ability test in aged mice; assay type: in vivo; details: males and females, PCC1 biweekly
# Procedure: N=5. ^, P>0.05; **, P<0.01.
# N=5/group. , P>0.05; ***, P<0.001.
# All testing began on day 5 after the last placebo or drug treatment. Maximum walking speed was assessed using the accelerated RotaRod System (TSE System, Chesterfiled, Mo.). The mice were trained on the RotaRod for 3 days at speeds of 4, 6 and 8 r.p.m, lasted for 200 seconds on the 1st, 2nd and 3rd days. On the test day, the mice were placed on the RotaRod, and the test was performed starting at a speed of 4 r.p.m. The rotation speed was accelerated from 4 to 40 r.p.m at intervals of 5 minutes. When the mice fell off the RotaRod, the speed was recorded. The final results were averaged from 3 or 4 trials and normalized to baseline speed. […]
# Forelimb grip strength (N) was measured using a Grip Strength Meter (Columbus Instruments, Columbus, Ohio), and the results were averaged from more than 10 trials. […] The mice were only allowed to grasp the wire with their forelimbs, and the hang time was normalized to body weight and expressed as hang duration (sec) x body weight (g). […] Their daily activity and food intake were monitored for 24 h (12 hours of light and 12 hours of dark) by a Comprehensive Laboratory Animal Monitoring System (CLAMS). […] The distance was recorded after the test, and the total work (KJ) was calculated with the following formula: mass (kg)×g (9.8 m/s^2)×distance (m)×sin) (5°).
# [2] = tested on: senescent cells in tumor tissue; test: SA-β-Gal staining of tumor tissue in PC3/PSC27 tumor-bearing mice; assay type: in vivo; details: PCC1 administered to MIT-treated animals
# Procedure: Representative pictures after SA-β-Gal staining. Scale bar, 100 μm.
# A P>0.05; **, P<0.01; ***, P<0.001.
# (§1) In a preclinical treatment trial, subcutaneously transplanted mice were fed with a standard experimental diet, after 2 weeks chemotherapy drugs mitoxantrone (MIT, dose: 0.2 mg/kg) and/or procyanidin C1 (PCC1) (500 μl, dose: 10 mg/kg) via intraperitoneal administration. The time points were: the former was administrated on the first day of the 3rd, 5th and 7th weeks, and the latter was administrated on the first day of the 5th and 7th weeks. A total of 3 cycles of MIT administration were carried out throughout the course of treatment, and each cycle lasted for 2 weeks. After the course of treatment, mouse tumors were harvested for volume measurement and histological analysis. Each mouse cumulatively received 0.6 mg/kg body weight of MIT and 30 mg/kg body weight of PCC1. In order to cause systemic expression of SASP factor induced by chemotherapy, MIT was administered to mice through intravenous infusion according to the above steps and sequence, but the dose was reduced to 0.1 mg/kg body weight/each time (the cumulative dose of MIT received in the whole course of treatment was 0.3 mg/kg body weight) to reduce drug-related toxicity. […]
# [3] = tested on: PSC27 cells; test: Population doubling test of PSC27; assay type: cell-based, human
# Procedure: The cells were damaged by BLEO at passage 10 (p10), and then PCC1 was added to the medium at day 8. The effect of PCC1 on cell proliferation potential is determined by comparative analysis of the population doubling (PD) of CTRL group, BLEO group, PCC1 group and BLEO/PCC1 group. ^, P>0.05; ***, P<0.001.
# [4] = tested on: SASP factors; test: LCM and qRT-PCR of SASP factors in mouse lesions; assay type: in vivo, mice; details: MIT/PCC1 vs MIT, stromal cells
# Procedure: The stromal cells and cancer cells were specifically separated by LCM technology, total RNA was prepared and used for SASP expression detection. A P>0.05; *, P<0.05; **, P<0.01; ***, P<0.001.
# as §1
# [5] = tested on: cancer cells in the lesion; test: DNA damage and apoptosis in tumor lesions (LCM, caspase 3 cleavage IHC); assay type: in vivo, mice
# Text: The signals of Caspase 3 cleaved […] in the lesion of each group of mice were in sharp contrast. Scale bar, 200 μm.
# To investigate mechanisms directly supporting this senescence-associated pattern with expression and reversal of SASP in MIT-administered mice, we dissected tumors in animals treated with both drugs 7 days after the first PCC1 administration, and the time point of 7 days after administration was selected mainly because drug-resistant clones had not yet formed in cancer cells in the lesion at this time. […] As supporting evidence, when PCC1 was applied during treatment, caspase 3 cleavage activity was increased, which was a typical hallmark of apoptosis (FIG. 29).
# [6] = tested on: senescent PSC27 cells; test: Caspase 3/7 activity / drug-induced apoptosis in senescent cells; assay type: cell-based, human
# Procedure: PSC27 cells gradually entered the senescent stage after being treated with BLEO for 12 hours under culture conditions. 50 μM PCC1 was added to the medium of senescent cells starting from day 7, NucLight Rapid Red reagent was used to label the cells, and caspase 3/7 reagent (IncuCyte) was used for apoptosis detection. Caspase 3/7 activity was detected every 4 hours (n=3).
# Statistical differences are obtained by two-way ANOVA (Turkey' test).
# PSC27 cells were plated in a 96-well dish, and the cells were induced to senescence under the treatment of 50 μg/mL BLEO. PCC1 and ABT263 were added at concentrations of 50 μM and 1.0 μM, respectively. Cell culture medium was supplemented with Incucyte Nuclight fast Red Reagent (Essen Bioscience) and Incucyte C-3/7 Apoptosis Reagent (Essen Bioscience). Representative field of view was selected to take pictures.
structure (smiles),measurement,setting,value
"Oc1cc(O)c2c(c1)O[C@H](c1ccc(O)c(O)c1)[C@H](O)[C@H]2c1c(O)cc(O)c2c1O[C@H](c1ccc(O)c(O)c1)[C@H](O)[C@H]2c1c(O)cc(O)c2c1O[C@H](c1ccc(O)c(O)c1)[C@H](O)C2 [PCC1, procyanidin C1]",physical function during the last 2 months of life vs vehicle,[1],did not show a significant decrease
same,senescent cells within lesions of chemotherapeutic (MIT) animals,[2],substantially depleted most senescent cells
same,population doubling (PD) ability,[3]; BLEO and PCC1 combined treatment vs BLEO group,significantly increased
same,effect on PD of proliferating cells,"[3]; PCC1 alone, proliferating cells",did not appear to affect
same,MIT-induced SASP expression change upon PCC1,[4],largely reversed
same,indices of DNA damage or apoptosis,[5]; PCC1 administered to MIT-treated animals,significantly enhanced
same,caspase 3 cleavage activity,[5]; PCC1 applied during MIT treatment,increased
same,degree of DNA damage and apoptosis,"[5]; single agent vs placebo, 7 days after first PCC1 administration",could not induce DNA damage or cause apoptosis
same,time after addition from which caspase-3/7 activity differs statistically between senescent and control group,[6]; 50 μM PCC1,16 h
same,effect on proliferating cells (apoptosis),[6]; proliferating PSC27,basically not targeted or affected
